The values below come from ChEMBL document CHEMBL4616690, “Assembling Pharma Resources to Tackle Diseases of Underserved Populations” (ACS Med Chem Lett, 2020).

SMILES strings stand for the structures. Bounds are passed on as bounds.

The IC50 is the concentration at which inhibition is half-maximal. Read a low IC50 as greater potency.

Test [1] deals with Wolbachia. In words: Antibacterial activity against Wolbachia infected in insect cells. It counts as functional, organism-based.
Test [2] concerns Wolbachia. In words: Potency index, ratio IC50 for doxycycline to IC50 for compound for antibacterial activity against Wolbachia infected in insect cells. Type of test: functional.
In test [3] the test system is Wolbachia. In words: Potency index, ratio IC50 for TylA to IC50 for compound for antibacterial activity against Wolbachia infected in insect cells. It counts as functional.

`CC[C@H]1OC(=O)C[C@@H](O)[C@H](C)[C@@H](O[C@@H]2O[C@H](C)[C@@H](O[C@H]3C[C@@](C)(O)[C@@H](OCc4ccc(F)cc4)[C@H](C)O3)[C@H](N(C)C)[C@H]2O)[C@@H](CC=O)C[C@@H](C)C(=O)/C=C/C(C)=C/[C@@H]1CO[C@@H]1O[C@H](C)[C@@H](O)[C@@H](OC)[C@H]1OC` [FLUBENTYLOSIN] came in with a half-maximal inhibitory concentration (IC50) in the test on Wolbachia [1] of 0.02 nM. In addition, the “Ratio IC50” value with Wolbachia [2] and in the test on Wolbachia [3] was over 1000 in each case.
